In patent US6010890A, “Method for viral inactivation and compositions for use in same” (New York Blood Center, Inc., priority 1997, dated 2000):
Entries after “also recorded” stand apart in the source; their conditions may differ. Like-named read-outs stand apart in the source and are kept apart here.

Assays:
BDV = test: Virus inactivation in RBCC using Pc4 and red light: BDV (Example 2); format: cell-based; settings: for Light Dose (for ≥6 log10 virus kill): Pc4 2 μM with 4 mM cysteine, 1 mM tocopherol succinate, 0.5 mM carnitine, 670 nm LED
baboon RBC = test: Circulatory survival of baboon RBC after virucidal treatment (preliminary); format: in vivo
VSV [1] = format: cell-based; settings: for Light Dose (for ≥6 log10 virus kill): Pc4 2 μM with 4 mM cysteine, 1 mM tocopherol succinate, 0.5 mM carnitine, 670 nm LED
HIV (cell-free) = test: Virus inactivation in RBCC using Pc4 and red light: HIV cell-free (Example 2); format: cell-based; settings: for Light Dose (for ≥6 log10 virus kill): HIV (cell-free), Pc4 2 μM with 4 mM cysteine, 1 mM tocopherol succinate, 0.5 mM carnitine, 670 nm LED
HIV = format: cell-based
RBC [2] = test: Binding of Pc4 to RBC in RBCC (HPLC after extraction); format: in vitro ADME, human; settings: for Pc4 Bound to RBC: 2 μM
Protocol: The amount of Pc4 bound to RBC in the RBCC was measured using HPLC and extraction procedure described previously (Zuk, M. M., et al. J. Chromat. B Biomed. Appl. 673:220-224 (1995)). Amount of Pc4 was expressed as a percentage of the total recovered in RBCC. Recovery of Pc4 was about 90% (±10%).
^1 Pc4 was added into RBCC at 2 μM final concentration. At various
times thereafter at room temperature, RBC were separated by
centrifugation, rinsed 5 times with PBS, and Pc4 was extracted and
analyzed by HPLC, as described. Pc4 not bound to RBC was recovered
quantitatively from the plasma.
^1 Pc4 was added into RBCC at 2 μM final concentration formulated
in the indicated liposomes. After 35 minutes at 4° C., RBC were
separated by centrifugation, rinsed 5 times with PBS, and Pc4 was analyze

HIV (cell-assoc.) = test: Virus inactivation in RBCC using Pc4 and red light: HIV cell-associated (Example 2); format: cell-based
VSV [3] = format: cell-based
RBC [4] = test: RBC hemolysis during storage following virucidal treatment (Example 1); format: cell-based, human
Protocol: FIG. 2 represents RBC hemolysis during storage following virucidal treatment. Pc4 was added into RBCC in the indicated delivery vehicle at a final concentration of 2 μM and exposed to 90 J/cm2 broad band red light at room temperature after the indicated incubation time at room temperature. The treated RBCC were stored at 4° C. prior to assay.
FIG. 4 represents RBC hemolysis during storage following virucidal treatment. PC4 was added to RBCC in the indicated liposomal formulations at 2 μM and exposed to 668 nm light at room temperature and the indicated dose after 5 minutes incubation. The treated RBCC were stored at 4° C. prior to assay.
FIG. 6 represents RBC hemolysis during storage following virucidal treatment. […] The treated RBCC were stored at 4° C. prior to assay.
RBCC samples (3 ml in polystyrene tubes) at hematocrit of 58-60% in ADSOL (obtained from Blood Services, New York Blood Center) were irradiated with red light either as a broad band (600-800 nm) or as a narrow band at 668 nm or 700 nm. Broad band light was from a 300 W xenon lamp (Oriel Corp., Stratford, Conn.) equipped with a cutoff filter (λ>600 nm) with an irradiance of 25 mW/cm^2. Narrow band light (27 nm bandwidth at half-height) was from LED arrays (Efos Canada, Inc., Mississauga, Ontario, Canada) emitting at either 668 nm or 700 nm with an irradiance of 50 mW/cm^2. During irradiation the samples were rotated and rolled on a hematology mixer (Fisher Scientific, Inc., Pittsburgh, Pa.) to obtain even exposure. Temperature was kept at 25 or 4° C. by an air stream of appropriate temperature.
Samples of RBCC were stored after treatment at 4° C. The extent of hemolysis was determined by comparing the hemoglobin in the supernatant to the total hemoglobin. The total hemoglobin was determined by using the Drabkin reagent (Sigma Procedure #525, Sigma Chemical Co., St. Louis, Mo.). The absorption at 540 nm was used to calculate the amount of hemoglobin released in the supernatant.

RBC [5] = test: Hemolysis after 21 day storage of RBCC treated with liposomal Pc4 and formulations of tocopherol succinate (Example 3); format: cell-based; settings: with 2 μM liposomal Pc4, 10 J/cm^2, 670 nm, 4° C.
Protocol: RBCC were treated with 2 μM Pc4 in POPC:DOPC=4:1 liposomes in the presence of 1 mM tocopherol succinate in the formulations presented in Table 4 below, and exposed to 10 J/cm^2 of red light (670 nm) emitted by LED array. The RBCC were then stored for 21 days at 4° C.

Protocol for rabbit RBC: Pc4 was added to rabbit RBCC in POPC:DOPS=4:1 liposomes at 2 μM and exposed to 0, 10 and 15 J/cm^2, as indicated, of 700 nm light at room temperature after 5 minutes pre-irradiation incubation. The treated RBCC were labeled with ^51 CrO^2- and their circulatory survival assayed as described in Materials and Methods.
Rabbit RBCC were treated as described for human red cells and their circulatory survival was determined as described previously (Rywkin, S., et al. Photochem. Photobiol. 56:463-469 (1992). Briefly, treated red cells were labelled with 1 μCi/ml Na2 ^51 CrO4 for 1 hour at room temperature and then thoroughly washed with PBS. The labelled cells were infused autologously. At intervals, 1 ml blood was withdrawn and the radioactivity associated with RBC was determined.

CN(C)CCC[Si](C)(C)O[Si]1(O)n2c3c4ccccc4c2N=C2N=C(N=c4c5ccccc5c(n41)=NC1=NC(=N3)c3ccccc31)c1ccccc12 (stereo not drawn) [Pc4, hydroxysiloxydimethylpropyl-N-dimethyl silicon phthalocyanine]
reduction of circulatory survival of red cells (rabbit RBC; rabbit, 10 J/cm^2 of 700 nm light (FIG. 7)): about 30%
24 hour recovery in vivo of the treated RBC (rabbit RBC; rabbits): exceeded 90%
circulatory half-life of RBC (rabbit RBC; rabbits, 10 J/cm^2 of 700 nm light, control 10.5 days (FIG. 7)): 7.5 days
circulatory half-life and 24 hour recovery (rabbit RBC; rabbits, liposomal Pc4, 10 J/cm^2, 700 nm): close to normal
Light Dose (for ≥6 log10 virus kill) (BDV; Blood Bags (50 ml)): 30 J/cm2
Light Dose (for ≥6 log10 virus kill) (BDV; Test Tubes (3 ml)): 7 J/cm2
virus kill (BDV; at the light doses of Table 3): ≥ 6 log10
effect on circulatory survival of red cells (baboon RBC; baboon, 10 J/cm^2 of 700 nm light): only a slight effect
24 hour recovery in vivo of the treated RBC (baboon RBC; baboons): exceeded 90%
circulatory half-life and 24 hour recovery (baboon RBC; baboons, liposomal Pc4, 10 J/cm^2, 700 nm): essentially normal
circulatory half-life of RBC (baboon RBC; baboons, liposomal Pc4 and 10 J/cm2 of 700 nm light, from 13.2 days, preliminary): 11.6 days
Light Dose (for ≥6 log10 virus kill) (VSV [1]; Blood Bags (50 ml)): 22 J/cm2
Light Dose (for ≥6 log10 virus kill) (VSV [1]; Test Tubes (3 ml)): 5 J/cm2
virus kill (VSV [1]; at the light doses of Table 3): ≥ 6 log10
Light Dose (for ≥6 log10 virus kill) (HIV (cell-free); Blood Bags (50 ml)): 55 J/cm2
Light Dose (for ≥6 log10 virus kill) (HIV (cell-free); Test Tubes (3 ml)): 15 J/cm2
virus kill (HIV (cell-free); HIV, at the light doses of Table 3): ≥ 6 log10
viral reduction of HIV versus RBC hemolysis (HIV): best viral reduction of HIV with the least amount of RBC hemolysis
Pc4 binding to RBC at room temperature compared with 4° C. (RBC [2]; POPC:DOPS=9:1 liposomes, Tables 1 and 2): more binding to RBC than at 4 °C
Pc4 Bound to RBC (RBC [2]; delivery vehicle CRM, incubation time 0 min, room temperature): 59%
Pc4 Bound to RBC (RBC [2]; delivery vehicle CRM, incubation time 5 min, room temperature): 58%
Pc4 Bound to RBC (RBC [2]; delivery vehicle CRM, incubation time 30 min, room temperature): 58%
Pc4 Bound to RBC (RBC [2]; delivery vehicle CRM, incubation time 90 min, room temperature): 64%
Pc4 Bound to RBC (RBC [2]; delivery vehicle DMSO, incubation time 0 min, room temperature): 54%
Pc4 Bound to RBC (RBC [2]; delivery vehicle DMSO, incubation time 5 min, room temperature): 54%
Pc4 Bound to RBC (RBC [2]; delivery vehicle DMSO, incubation time 30 min, room temperature): 56%
Pc4 Bound to RBC (RBC [2]; delivery vehicle DMSO, incubation time 90 min, room temperature): 54%
Pc4 Bound to RBC (RBC [2]; delivery vehicle Liposomes (POPC:DOPS = 9:1), incubation time 0 min, room temperature): 6%
Pc4 Bound to RBC (RBC [2]; delivery vehicle Liposomes (POPC:DOPS = 9:1), incubation time 5 min, room temperature): 9%
Pc4 Bound to RBC (RBC [2]; delivery vehicle Liposomes (POPC:DOPS = 9:1), incubation time 30 min, room temperature): 15%
Pc4 Bound to RBC (RBC [2]; delivery vehicle Liposomes (POPC:DOPS = 9:1), incubation time 90 min, room temperature): 44%
Pc4 Bound to RBC (RBC [2]; liposomal preparation POPC:DOPS = 1:1, 35 minutes at 4° C.): 0.8%
Pc4 Bound to RBC (RBC [2]; liposomal preparation POPC:DOPS = 1:2, 35 minutes at 4° C.): 1.0%
Pc4 Bound to RBC (RBC [2]; liposomal preparation POPC:DOPS = 4:1, 35 minutes at 4° C.): 4.4%
Pc4 Bound to RBC (RBC [2]; liposomal preparation POPC:DOPS = 9:1, 35 minutes at 4° C.): 4.8%
Pc4 Bound to RBC (RBC [2]; liposomal preparation POPC:DOPS:PEG = 8:1:1, 35 minutes at 4° C.): 23.5%
Pc4 Bound to RBC (RBC [2]; liposomal preparation POPC:DOPS:chol = 9:1:10, 35 minutes at 4° C.): 33.7%
Pc4 binding to red cells, effect of liposome composition (RBC [2]; words, PEG, cholesterol or DOPS ratio as stated (Table 2)): progressively reduced binding of Pc4 to red cells
Light Dose (for ≥6 log10 virus kill) (HIV (cell-assoc.); Blood Bags (50 ml), Pc4 2 μM with 4 mM cysteine, 1 mM tocopherol succinate, 0.5 mM carnitine, 670 nm LED): 55 J/cm2
Light Dose (at this dose only 4 log10 kill) (HIV (cell-assoc.); Test Tubes (3 ml), Pc4 2 μM with 4 mM cysteine, 1 mM tocopherol succinate, 0.5 mM carnitine, 670 nm LED): 15 J/cm2
virus kill (HIV (cell-assoc.); Test Tubes, 15 J/cm2): 4 log10
inactivation of VSV, 668 vs 700 nm LED (VSV [3]; Pc4 2 μM in POPC:DOPS=4:1 liposomes, 4° C. (FIG. 5)): equally effective
rate of inactivation of VSV, dependence on pre-irradiation incubation time (VSV [3]; liposomal Pc4 2 μM, broad band red light (FIG. 1)): does not depend on time of incubation of liposomal Pc4 prior to light exposure
VSV kill, effect of incubation temperature (VSV [3]; room temperature vs 4° C.): not affected by the incubation temperature
hemolysis development during storage, 668 nm compared with 700 nm LED (RBC [4]; Pc4 2 μM in POPC:DOPS=4:1 liposomes, 10 J/cm^2 (FIG. 6)): much faster
rate of hemolysis during storage, 700 nm LED compared with untreated control (RBC [4]; Pc4 2 μM in POPC:DOPS=4:1 liposomes, 10 J/cm^2 of 700 nm light (FIG. 6)): only slightly faster than in control
RBC damage / hemolysis at equivirucidal doses (RBC [4]; Pc4 2 μM in POPC:DOPS=4:1 liposomes, 668 nm (FIG. 4)): least RBC damage; also recorded: minimal hemolysis
RBC hemolysis during storage, liposomes vs other vehicles (RBC [4]; Pc4 2 μM, 90 J/cm2 broad band red light, 4° C. storage (FIG. 2)): less hemolysis
RBC hemolysis during storage, effect of incubation time (RBC [4]; liposomal Pc4 2 μM, 90 J/cm2 broad band red light (FIG. 2)): incubation for 5 minutes was better than for 30 minutes
hemolysis following a virucidal light dose (RBC [4]; liposomal Pc4, 10 J/cm^2, 700 nm, over 3 weeks storage, 30240 min, 2 µM): ≤ 1%

Cc1c(C)c2c(c(C)c1OC(=O)CCC(=O)O)CCC(C)(CCCC(C)CCCC(C)CCCC(C)C)O2 (stereo not drawn) [α-tocopherol succinate]
Hemolysis After 21 Day Storage (RBC [5]; 1 mM α-tocopherol succinate formulated in Ethanol): 10.5%
Hemolysis After 21 Day Storage (RBC [5]; 1 mM α-tocopherol succinate formulated in POPC:DOPS = 4:1): 18.3%
Hemolysis After 21 Day Storage (RBC [5]; 1 mM α-tocopherol succinate formulated in POPC:DOPS:chol = 9:1:10): 6.1%
Hemolysis After 21 Day Storage (RBC [5]; 1 mM α-tocopherol succinate formulated in POPC): 1.2%
